In brackets after ≈: the same amount, converted by molar mass. Activity calls are given as the source filed them. No cut-off for these calls is given here.
Columns and labels:
Trypanosoma cruzi [1] = experiment: Antitrypanosomal activity against Trypanosoma cruzi CaI-72 trypomastigotes infected in mouse C2C12 cells measured after 72 hrs by DAPI staining based assay; type: functional, organism-based; settings: CaI-72, C2C12, 72 h
[2] = Selectivity index, ratio of TC50 for mouse C2C12 cells to EC50 for antitrypanosomal activity against Trypanosoma cruzi CaI-72 trypomastigotes infected in mouse C2C12 cells; type: toxicity, cell-based
Leishmania major = experiment: Antileishmanial activity against Leishmania major amastigotes infected in mouse RAW 264.7 cells by luciferase reporter gene assay; type: functional, organism-based; settings: RAW264.7
Plasmodium falciparum = experiment: Antiplasmodial activity against Plasmodium falciparum D6 measured after 72 hrs by SYBR green fluorescence dye based microplate reader analysis; type: functional, organism-based; settings: D6, 72 h
[3] = Selectivity index, ratio of TC50 for human HepG2 cells to EC50 for antiplasmodial activity against Plasmodium falciparum D6; type: toxicity
Trypanosoma cruzi [4] = experiment: Antitrypanosomal activity against Trypanosoma cruzi Tulahuen trypomastigotes infected in mouse NIH/3T3 cells measured after 96 hrs by beta-galactosidase reporter gene assay; type: functional, organism-based; settings: NIH3T3, 96 h
Leishmania donovani [5] = experiment: Antileishmanial activity against Leishmania donovani infected in mouse B10R cells after 72 hrs by DAPI staining based assay; type: functional, organism-based
[6] = Selectivity index, ratio of TC50 for human HepG2 cells to EC50 for antileishmanial activity against Leishmania major amastigotes infected in mouse RAW 264.7 cells; type: toxicity, cell-based
[7] = Aqueous solubility of compound at pH 7.4; type: physicochemical; settings: aqueous solution, read-out: solubility
[8] = Protein binding in human plasma; type: ADME, cell-free; settings: read-out: PPB (converted)
[9] = Intrinsic clearance in human liver microsomes assessed as per mg protein; type: ADME, Microsome
[10] = Intrinsic clearance in rat hepatocytes assessed as per million cells; type: ADME, cell-based, Hepatocyte; settings: read-out: CLH
[11] = Cytotoxicity against human HepG2 cells assessed as reduction in cell viability; type: cell-based; settings: read-out: TC50 (the source's name)
[12] = Selectivity index, ratio of TC50 for mouse B10R cells to EC50 for antileishmanial activity against Leishmania donovani infected in mouse B10R cells; type: toxicity, cell-based
Leishmania donovani [13] = experiment: Antileishmanial activity against Leishmania donovani promastigotes infected in BALB/c mouse assessed as effect on parasitemia at 50 mg/kg bid for 14 days and measured after 5 weeks post infection; type: functional, organism-based

Row | Structure (SMILES) | EC50 (Trypanosoma cruzi [1]) [nM] | selectivity ratio [2] | EC50 (Leishmania major) [nM] | EC50 (Plasmodium falciparum) [nM] | selectivity ratio [3] | EC50 (Leishmania donovani [5]) [nM] | selectivity ratio [6] | other results
1 | COc1ccc(NC(=O)c2cc(F)c(N3CCCN(C)CC3)cc2F)cc1Cl | 5500 | 1.6 | > 24000 | 4600 | > 5.2 | – | – | –
2 | CN1CCN(c2ccc(-c3ccc4c(Nc5cnccn5)ccnc4c3)cc2)CC1 | – | – | > 23000 | 74 | – | – | – | EC50 (Trypanosoma cruzi [4]): 6100 nM
3 | CN1CCCN(c2ncc(-c3ccc4c(Nc5ccccn5)ccnc4c3)cn2)CC1 | 1300 | 7.5 | > 24000 | 39 | 487 | > 10000 | – | –
4 | O=S(=O)(c1ccc(-c2ccc3nccc(NCCN4CCCC4)c3c2)cc1)N1CCOCC1 | 1900 | 0.89 | > 21000 | 30 | 307 | – | – | –
5 | CN1CCN(c2ccc(Nc3ccc4c(Nc5cnccn5)ccnc4c3)cc2)CC1 | – | – | 7900 | 130 | – | – | – | –
6 | CN1CCN(c2ncc(Nc3ccc4c(Nc5cnccn5)ccnc4c3)cn2)CC1 | – | – | 1700 | 77 | 312 | – | 14 | EC50 (Trypanosoma cruzi [4]): 47000 nM
7 | CN1CCCN(c2ncc(-c3ccc4c(c3)ncc3c5ccccc5[nH]c43)cn2)CC1 | 240 | 6.7 | > 5000 | 46 | > 161 | – | – | –
8 | CN1CC2(CCN(c3ncc(-c4ccc5c(Nc6cnccn6)ccnc5c4)cn3)C2)C1 | 220 | 1.9 | > 24000 | 58 | > 414 | – | – | –
9 | CN1CCCN(S(=O)(=O)c2ccc(-c3ccc4c(Nc5ccc(Cl)cn5)ccnc4c3)cc2)CC1 | 160 | 21 | 1300 | 51 | 35 | > 10000 | 1.4 | –
10 | c1cnc(Nc2ccnc3cc(-c4cnc(N5CCNCC5)nc4)ccc23)cn1 | – | – | > 5200 | 130 | > 300 | – | – | EC50 (Trypanosoma cruzi [4]): > 50000 nM
11 | CCCN1CCN(c2ncc(-c3ccc4c(Nc5cnccn5)ccnc4c3)cn2)CC1 | 7600 | – | 4300 | 23 | – | – | – | –
12 | CN1CCCN(c2ncc(-c3ccc(C(=O)Nc4cccc(Cl)c4F)c(O)c3)cn2)CC1 | 3900 | 1.6 | > 2200 | 71 | > 310 | – | – | –
13 | COc1ccc(NC(=O)c2ccc(-c3cnc(N4CCCN(C)CC4)nc3)cc2O)cc1Cl | > 10000 | – | > 4300 | 88 | – | > 10000 | – | –
14 | CN1CCN(c2ncc(-c3ccc4c(N[C@@H]5CCCC[C@H]5O)ccnc4c3)cn2)CC1 | > 10000 | – | > 2400 | 37 | – | > 10000 | – | –
15 | Cc1cc2c(Nc3cnccn3)ccnc2cc1-c1cnc(N2CCN(C)CC2)nc1 | – | – | 1800 | 180 | 33 | – | 3.3 | EC50 (Trypanosoma cruzi [4]): 22000 nM
16 | Cc1cncc(Nc2ccnc3cc(-c4cnc(N5CCCN(C)CC5)nc4)ccc23)n1 | – | – | 9200 | 19 | 947 | – | 2 | –
17 | O=S(=O)(c1ccc(-c2ccc3nccc(NCCC4CCOCC4)c3c2)cc1)N1CCOCC1 | 4700 | 1.3 | > 21000 | 75 | > 280 | > 10000 | – | –
18 | CS(=O)(=O)N1CCN(c2ncc(-c3ccc4c(Nc5cnccn5)ccnc4c3)cn2)CC1 | – | – | 730 | > 4300 | – | – | > 45 | EC50 (Trypanosoma cruzi [4]): 45000 nM; solubility [7]: 0.06 µM (≈ 0.0278 µg/mL); fraction unbound [8]: 0.05; microsomal CLint ([9]; liver microsomes, read-out: CLH): 44 µL/min/mg; hepatocyte CLint [10]: 28 µL/min/1e6 cells; CC50 [11]: > 33000 nM
19 | CN1CCN(c2ncc(-c3ccc4c(NC5CCC(N(C)C)CC5)ccnc4c3)cn2)CC1 (stereo unspecified) | > 10000 | – | > 2200 | 53 | – | > 10000 | – | –
20 | Cc1ccc2[nH]c3c4ccc(-c5cnc(N6CCCN(C)CC6)nc5)cc4ncc3c2c1 | 210 | 2.4 | 440 | 37 | 127 | 640 | 10 | selectivity ratio [12]: 3.6
21 | CCCn1cc/c(=N\c2cnccn2)c2ccc(-c3cnc(N4CCCN(C)CC4)nc3)cc21 | 2100 | 1.4 | 1500 | 87 | > 379 | > 10000 | > 22 | –
22 | CN1CCCN(S(=O)(=O)c2ccc(-c3ccc4c(Nc5ccc(OC(F)(F)F)cc5)ccnc4c3)cc2)CC1 | 130 | 40 | 220 | 140 | 11 | > 10000 | 7.3 | –

Row | Structure (SMILES) | EC50 (Trypanosoma cruzi [1]) [nM] | selectivity ratio [2] | EC50 (Leishmania major) [nM] | EC50 (Plasmodium falciparum) [nM] | selectivity ratio [3] | EC50 (Leishmania donovani [5]) [nM] | selectivity ratio [6] | other results
23 | CN1CCCN(c2ncc(-c3ccc4c(Nc5cnccn5)ccnc4c3)cn2)CC1 | 1200 | – | 24000 | 24 | – | – | – | –
24 | CN1CCN(c2ncc(-c3ccc4/c(=N/c5cnccn5)ccn(C)c4c3)cn2)CC1 | > 10000 | – | 2300 | 180 | 133 | > 10000 | > 10 | –
25 | Cc1c(-c2cnc(N3CCN(C)CC3)nc2)ccc2c(Nc3cnccn3)ccnc12 | – | – | > 24000 | 69 | – | – | – | EC50 (Trypanosoma cruzi [4]): 25000 nM
26 | CN1CCCN(c2ccc(-c3ccc4c(Nc5cnccn5)ccnc4c3)cc2)CC1 | 370 | 1 | 5500 | 10 | 960 | – | 1.7 | solubility [7]: 4.1 µM (≈ 1.68 µg/mL)
27 | CCN1CCN(c2ncc(-c3ccc4c(Nc5cnccn5)ccnc4c3)cn2)CC1 | 7700 | – | 24000 | 29 | – | – | – | –
28 | CN1CCN(c2ncc(-c3ccc4c(NC5CCOCC5)ccnc4c3)cn2)CC1 | > 10000 | – | > 25000 | 25 | 600 | 4000 | – | –
29 | CCn1cc/c(=N\c2cnccn2)c2ccc(-c3cnc(N4CCCN(C)CC4)nc3)cc21 | 3000 | 1 | 23000 | 170 | > 200 | > 10000 | > 1.5 | –
30 | CN1CCCN(c2ncc(-c3ccc4c(Nc5cccnc5)ccnc4c3)cn2)CC1 | > 10000 | – | > 22000 | 25 | > 1320 | > 10000 | – | –
31 | CN1CCN(c2ncc(-c3ccc4c(NCC5CCOCC5)ccnc4c3)cn2)CC1 | 1200 | 3.2 | > 24000 | 26 | 615 | 8700 | – | –
32 | CN1CCN(c2nccc(Nc3ccc4c(Nc5cnccn5)ccnc4c3)n2)CC1 | – | – | 3300 | 180 | – | – | – | EC50 (Trypanosoma cruzi [4]): > 50000 nM
33 | CC(C)(C)OC(=O)N1CCN(c2ncc(-c3ccc4c(Nc5cnccn5)ccnc4c3)cn2)CC1 | – | – | 350 | 150 | > 207 | – | > 89 | EC50 (Trypanosoma cruzi [4]): > 50000 nM
34 | CN1CCC2(CCN(c3ncc(-c4ccc5c(Nc6cnccn6)ccnc5c4)cn3)C2)C1 (stereo unspecified) | 520 | 19 | > 23000 | 30 | 533 | – | – | –
35 | CN1C[C@H]2C[C@@H]1CN2c1ncc(-c2ccc3c(Nc4cnccn4)ccnc3c2)cn1 | 6100 | – | 2600 | 52 | – | – | – | –
36 | CN1CCN(c2ncc(-c3ccc4c(NCCN5CCCC5)ccnc4c3)cn2)CC1 | 2100 | – | > 24000 | 24 | – | > 10000 | – | –
37 | CN1CCN(c2ncc(-c3ccc4c(Nc5ccc(OCc6cccc(F)c6)c(Cl)c5)ccnc4c3)cn2)CC1 | 30 | 290 | > 1500 | 18 | 167 | 23 | – | selectivity ratio [12]: 1740; Activity (Leishmania donovani [13]): inactive
38 | Cc1cnc(Nc2ccnc3cc(-c4cnc(N5CCCN(C)CC5)nc4)ccc23)cn1 | – | – | > 23000 | 24 | – | – | – | –
39 | CN1CCCN(c2ncc(-c3ccc4c(Nc5ccc(OC(F)(F)F)cc5)ccnc4c3)cn2)CC1 | 60 | 38 | 8200 | 6 | 233 | 85 | 0.8 | selectivity ratio [12]: 7.8
40 | COc1ccc(Nc2ccnc3cc(-c4cnc(N5CCCN(C)CC5)nc4)ccc23)cc1Cl | 80 | 12 | 1600 | 6 | 1130 | > 10000 | 4.3 | –
41 | CN1CCCN(c2ncc(-c3ccc4/c(=N/c5cnccn5)ccn(C)c4c3)cn2)CC1 | 10000 | – | – | 120 | – | 20 | – | CLH ([9]; microsomes): 22 µL/min; hepatocyte CLint [10]: 13 µL/min/1e6 cells; Activity (Leishmania donovani [13]): inactive
42 | CN1CCN(c2ccnc(Nc3ccc4c(Nc5cnccn5)ccnc4c3)n2)CC1 | – | – | – | 54 | – | – | – | EC50 (Trypanosoma cruzi [4]): > 20000 nM
43 | COc1ccc(NC(=O)c2ccc(-c3cccc(N4CCOCC4)c3)cc2O)cc1Cl | > 10000 | – | 360 | > 23000 | – | > 10000 | > 97 | –

Source: ChEMBL document CHEMBL4342474, “Scaffold and Parasite Hopping: Discovery of New Protozoal Proliferation Inhibitors” (ACS Med Chem Lett, 2020)
